A word on the EC50: it is the concentration needed to bring the measured effect to its halfway point.

This assay deals with T1, human TMEM16A (TMEM16Aabc variant) (Homo sapiens, UniProt Q5XXA6, DEL476-501).
T1 sequence (Q5XXA6 with tags, fused parts or gaps isoform Q5XXA6-5 DEL539-564): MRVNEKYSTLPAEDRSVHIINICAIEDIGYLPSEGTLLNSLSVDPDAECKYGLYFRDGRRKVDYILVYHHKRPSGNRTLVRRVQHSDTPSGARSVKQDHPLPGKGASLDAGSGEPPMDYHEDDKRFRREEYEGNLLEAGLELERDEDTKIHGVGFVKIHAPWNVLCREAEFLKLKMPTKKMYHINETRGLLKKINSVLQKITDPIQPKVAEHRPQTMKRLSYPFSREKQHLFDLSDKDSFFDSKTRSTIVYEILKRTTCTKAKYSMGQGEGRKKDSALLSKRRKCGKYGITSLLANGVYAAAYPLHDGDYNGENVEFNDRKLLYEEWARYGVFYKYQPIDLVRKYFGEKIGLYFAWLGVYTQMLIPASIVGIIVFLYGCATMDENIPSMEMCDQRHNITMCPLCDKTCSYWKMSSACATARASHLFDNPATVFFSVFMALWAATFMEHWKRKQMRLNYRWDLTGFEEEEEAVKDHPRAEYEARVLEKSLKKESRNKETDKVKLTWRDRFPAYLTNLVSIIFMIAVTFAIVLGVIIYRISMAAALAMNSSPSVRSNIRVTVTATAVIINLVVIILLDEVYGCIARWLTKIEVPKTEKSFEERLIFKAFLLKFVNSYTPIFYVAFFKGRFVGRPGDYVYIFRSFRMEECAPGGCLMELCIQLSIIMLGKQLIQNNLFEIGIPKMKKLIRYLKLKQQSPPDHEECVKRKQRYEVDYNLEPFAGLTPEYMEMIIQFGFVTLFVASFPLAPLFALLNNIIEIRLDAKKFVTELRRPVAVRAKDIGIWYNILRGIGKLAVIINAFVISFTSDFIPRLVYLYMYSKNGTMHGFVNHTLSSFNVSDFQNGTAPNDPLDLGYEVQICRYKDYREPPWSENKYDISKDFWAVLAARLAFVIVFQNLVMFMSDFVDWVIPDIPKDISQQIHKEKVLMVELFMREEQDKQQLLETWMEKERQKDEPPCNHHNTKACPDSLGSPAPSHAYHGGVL
Description: Automated whole-cell patch clamp (Qpatch) TMEM16A potentiator assay in recombinant cells. It is filed as cell-based. Particulars: FRT cells stably expressing human TMEM16A, intracellular calcium at EC20; for % Potentiation @ 3.33 μM Avg: 3.33 μM solution of test compound, percentage increase of baseline TMEM16A current, peak current at +70 mV; for EC50: calculated from cumulative concentration response curve, whole-cell patch clamp. How it is done:
Automated Whole-Cell Patch Clamp Assay to Detect TMEM16A Activity in Recombinant Cells
Cell Culture and Preparation
Fisher rat thyroid (FRT) cells stably expressing human TMEM16A (TMEM16Aabc variant; Dr Luis Galietta, Insituto Giannina, Italy) were cultured in T-75 flasks in Hams F-12 media with Coon's modification (Sigma) supplemented with 10% (v/v) foetal bovine serum, penicillin-streptomycin (10,000 U/mL/10000 μg/mL), G-418 (750 μg/mL), L-glutamine (2 mM) and sodium bicarbonate solution (7.5% v/v). At ˜90% confluence cells were harvested for experiments by detachment with a 2:1 (v/v) mixture of Detachin (BMS Biotechnology) and 0.25% (w/v) trypsin-EDTA. Cells were diluted to a density of 3.5-4.5×10^6 cells/mL with media consisting of CHO-S-SFM II (Sigma), 25 mM HEPES (Sigma) and Soy bean trypsin inhibitor (Sigma).
Whole-Cell Patch Clamp Recording
FRT-TMEM16A cells were whole-cell patch clamped using an automated planar patch clamp system (Qpatch, Sophion). Briefly, once high resistance (GOhm) seals were established between the cells and the planar recording array the patch was ruptured using suction pulses to establish the whole-cell recording configuration of the patch clamp technique. The assay employed the following solutions (all reagents Sigma):
Intracellular solution (mM): N-methyl-D-glucamine 130, CaCl2 18.2, MgCl2 1, HEPES 10, EGTA 10, BAPTA 20, Mg-ATP 2, pH 7.25, 325 mOsm with sucrose.
Extracellular solution (mM): N-methyl-D-glucamine 130, CaCl2 2, MgCl2 1, HEPES 10, pH 7.3, 320 mOsm with sucrose.
The intracellular solution buffers intracellular calcium at levels required to give ˜20% activation of the maximal TMEM16A mediated current (EC20 for calcium ions). Cells were voltage clamped at a holding potential of −70 mV and a combined voltage step (to +70 mV)/ramp (−90 my to +90 mV) was applied at 0.05 Hz. After a period of current stabilisation test compounds, solubilised in 100% (v/v) DMSO and subsequently diluted into extracellular solution, were applied to generate a cumulative concentration response curve. Each concentration of test compound was incubated for 5 minutes before addition of the next concentration. After the final concentration was tested a supramaximal concentration of either a known active positive modulator or the TMEM16A inhibitor, CaCCinhA01 (Del La Fuente et al, 2008) was added to define the upper and lower limits of the assay.
Compound activity was quantified by measuring the increase in current upon compound addition and expressing this as a percentage increase of baseline TMEM16A current level. Percentage increases in current were determined for each concentration and the data plotted as a function of concentration using either the Qpatch software or Graphpad Prism v6.05 providing the concentration which gave 50% of its maximal effect (EC50) and maximum efficacy (percentage of baseline increase).
In FIG. 1, IBL equals baseline current, I[#1] equals the peak current during test compound concentration 1 incubation period and so on.
Peak TMEM16A current at +70 mV was plotted as a function of time over the assay period. Baseline current (IBL) was measured after a period of stabilisation. The increase in current for each compound addition was determined by taking the peak current during the incubation period and subtracting the current from the previous recording period and then expressing this as a percentage of the baseline current. For test compound concentration 1 in FIG. 1 this is:
For each additional concentration tested the increase in current was determined by subtracting the current from the previous incubation period and normalising the baseline value—for test concentration 2 in FIG. 1 this is:
The values for each test concentration were plotted as a cumulative function of concentration e.g. for test concentration two this would be the sum of the peak changes measured during concentration one plus concentration two.

In the case of `O=C(NCC1CCCCCC1)c1ccc2[nH]c(Cc3ccc(F)cc3O)nc2c1` [Example 25.4, N-(Cycloheptylmethyl)-2-[(4-fluoro-2-hydroxy-phenyl)methyl]-1H-benzimidazole-5-carboxamide], the “% Potentiation @ 3.33 μM Avg” value came out at 120% and the EC50 is 130 nM. On the same counts, the results for `O=C(NCC1CCCCCC1)c1ccc2[nH]c(Cc3cccc(O)c3)nc2c1` [Example 25.5, N-(Cycloheptylmethyl)-2-[(3-hydroxyphenyl)methyl]-1H-benzimidazole-5-carboxamide] are 66% and 223 nM. On the same counts, the results for `CC(C)(C)Cc1nc2cc(NC(=O)Cc3cc(Cl)ccc3O)ccc2[nH]1` [Example 26, 2-(5-Chloro-2-hydroxy-phenyl)-N-[2-(2,2-dimethylpropyl)-1H-benzimidazol-5-yl]acetamide] are 69% and 98 nM. `CC(C)(C)c1nc2cc(NC(=O)Cc3cc(Cl)ccc3O)ccc2[nH]1` [Example 27, N-(2-tert-Butyl-1H-benzimidazol-5-yl)-2-(5-chloro-2-hydroxy-phenyl)acetamide]: the “% Potentiation @ 3.33 μM Avg” value is 96% and the EC50 is 156 nM. On the same counts, the results for `CC1(c2nc3ccc(C(=O)NCC4CCCCCC4)cc3[nH]2)CCC1` [Example 28, N-(Cycloheptylmethyl)-2-(1-methylcyclobutyl)-3H-benzimidazole-5-carboxamide] are 82% and 610 nM.

Consider `CC(C)(CO)c1cc(F)c(Cc2nc3cc(C(=O)NCC4(C(F)(F)F)CC4)ccc3[nH]2)cc1O` [Example 29, 2-[[2-Fluoro-5-hydroxy-4-(2-hydroxy-1,1-dimethyl-ethyl)phenyl]methyl]-N-[[1-(trifluoromethyl)cyclopropyl]methyl]-1H-benzimidazole-5-carboxamide], for which the “% Potentiation @ 3.33 μM Avg” value worked out at 183% and the EC50 is 496 nM. `CC(C)(CO)c1cc(F)c(CNC(=O)c2ccc3[nH]c(C4(C(F)(F)F)CC4)nc3c2)cc1O` [Example 30, N-[[2-Fluoro-5-hydroxy-4-(2-hydroxy-1,1-dimethyl-ethyl)phenyl]methyl]-2-[1-(trifluoromethyl)cyclopropyl]-1H-benzimidazole-5-carboxamide]: the “% Potentiation @ 3.33 μM Avg” value was determined as 66%. As for `CC(C)(O)c1cc(F)c(Cc2nc3cc(C(=O)NCCC(F)(F)F)ccc3[nH]2)cc1O` [Example 31, 2-[[2-Fluoro-5-hydroxy-4-(1-hydroxy-1-methyl-ethyl)phenyl]methyl]-N-(3,3,3-trifluoropropyl)-1H-benzimidazole-5-carboxamide], the “% Potentiation @ 3.33 μM Avg” value was 158%. Same read-out and setting: in the case of `CC(C)(O)c1cc(F)c(Cc2nc3cc(C(=O)NC4(C(F)(F)F)CC4)ccc3[nH]2)cc1O` [Example 31.1, 2-[[2-Fluoro-5-hydroxy-4-(1-hydroxy-1-methyl-ethyl)phenyl]methyl]-N-[1-(trifluoromethyl)cyclopropyl]-1H-benzimidazole-5-carboxamide] it was 108%. Regarding `CC(C)(CO)c1cc(F)cc(Cc2nc3cc(C(=O)NCC4(C(F)(F)F)CC4)ccc3[nH]2)c1O` [Example 32, 2-[[5-Fluoro-2-hydroxy-3-(2-hydroxy-1,1-dimethyl-ethyl)phenyl]methyl]-N-[[1-(trifluoromethyl)cyclopropyl]methyl]-1H-benzimidazole-5-carboxamide], the “% Potentiation @ 3.33 μM Avg” value was 56.6% and the EC50 is 227 nM.

The values are drawn from patent US12552770B2, “Compounds for treating respiratory disease” (TMEM16A Limited, priority 2020, dated 2026).
